Assay results reported in patent US20170027902A1, “Use of a Composition Comprising a Flavonol, A Flavonoid, and a Fatty Acid in the Treatment of Oxidative Injuries Due to Mitochondrial Dysfunction” (priority 2014, published 2017).

Tested on: primary cultures of mouse cortical neurons
Experiment: Oxygen glucose deprivation (OGD), cell viability by MTT assay
Assay type: cell-based
Conditions: for reduction in OGD-induced neuronal cell death / loss of cell viability (increase in neuronal survival): pretreatment 24 hrs before OGD (3 hrs), MTT 24 hrs after OGD; for reduction of loss in cell viability after OGD: treatment 0.5 hrs before OGD, 1 μg/ml, viability 24 hrs later
Description: Embryonic day 16 timed pregnant CD1 out-bred mice were obtained from Charles River Laboratories (Charles River; QC, Canada). Primary cortical neuron cultures were prepared from cerebral cortices of wild type (WT) CD1 mouse embryos as described previously, with the following modifications. Pregnant CD1 females were heavily anaesthetized with isoflurane vapor (Benson Medical Industries, Inc., Markham, ON) before being euthanized by decapitation. The embryonic day 16 (E16) fetuses were immediately removed from the sacrificed pregnant females by cesarean section and placed in ice-cold Hank's Balanced Salt Solution (HBSS) (GIBCO; Invitrogen, Amarillo, Calif.). The meninges were removed from the brains and cortices were isolated under a dissecting microscope. The cortices from each embryo were placed in individual wells of a 24-well plate (Corning; Lowell, Mass.), containing 1 ml of ice-cold PBS (GIBCO; […] Under sterile conditions, the tissue was briefly minced, transferred to 15 ml sterile conical tubes (Corning; Lowell, Mass.) and centrifuged at 350×g for 3 min at room temperature. The dissecting solution was discarded and the cortical neurons were then dissociated trituration with fire-polished glass pipettes followed by incubating in 1 ml of 0.1% trypsin solution (0.1% w/v trypsin (Invitrogen, Amarillo, Calif.) in PBS with 1 mM Mg^2+ and 13 mM glucose) at 37° C. for 15 min. The trypsinization was inhibited by the addition of 0.5 ml of trypsin inhibitor solution that also contained DNase I (0.06% w/v trypsin inhibitor (Invitrogen; Amarillo, Calif.) and 0.01% DNase I (Invitrogen; […] The tubes were mixed briefly and the cells were centrifuged at 350×g for 3 min at room temperature. The trypsin and inhibitor solutions were discarded and each cell pellet was suspended in 1 ml of cortical neuron plating medium (Neurobasal medium (Invitrogen, Amarillo, Calif.) with 10% fetal bovine serum (GIBCO; Invitrogen; Amarillo, Calif.), 2% B27 supplement, 1 mM L-glutamine, and 1% Gentamycin (Invitrogen; […] Cortical neurons were plated in 96-well plates (Corning; Lowell, Mass.) that were pre-coated with poly-D-lysine (PDL; Sigma-Aldrich; Oakville, ON) according to the procedure described by the manufacturer. Briefly, plates were coated immediately before use with 100 μg/ml PDL for 5-10 min (50 μl/well), washed three times with tissue-culture grade water and left to dry for 2 h before cells were introduced. Cortical neurons were plated at a concentration of 1×10^6 cells/ml (100 µl/well) and medium was completely changed the day after plating to serum-free cortical neuron medium (Neurobasal medium with 2% B27 supplement, 5 mM HEPES, 0.5 mM L-glutamine, and 20 μg/ml Gentamycin), which was replaced every 3 days in culture. Cultures were maintained in a humidified, 37° C. incubator with 5% CO2. Experiments were performed on the eighth day in vitro (DIV10). […] Glucose-free medium (glucose-free Dulbecco's Modified Eagle Medium (GBSS, Invitrogen; Amarillo, Calif.) containing either epicatechin or quercetin or epicatechin plus quercetin at concentration of 1 μg/ml or 3 μg/ml or the corresponding DMSO control (0.02% DMSO) was placed in a 96-well plate and equilibrated to 0% oxygen in a modular chamber incubator (Billups-Rothenberg; Del Mar, Calif.). The chamber was flushed for 4 min at 20 l/min with an anoxic gas mixture (5% CO2 and Balanced […]; Dartmouth, NS) using a step-down pressure system and placed in a humidified, 37° C. incubator for 12 h. Cortical neuron medium was replaced with OGD-medium (anoxic and glucose-free) and the cultures were placed in the modular chamber incubator. The chamber was flushed again with anoxic gas and placed inside a humidified, 37° C. incubator for 3 hrs. […] Cell viability was assessed 24 hours after the completion of OGD. The culture media was exchanged for MEM media without phenol red containing 0.5 mg/ml MTT (3-[4,5-dimethylthiazol-2-yl]-2,5-diphenyltetrazolium bromide). […]

[1] = 1 μg/ml total flavonoid (~3 μM; E+Q 0.5 μg/ml each)
[2] = 3 μg/ml total flavonoid (~10 μM; E+Q 1.5 μg/ml each)

## O=c1c(O)c(-c2ccc(O)c(O)c2)oc2cc(O)cc(O)c12 [Q]
[1]
  reduction in OGD-induced neuronal cell death / loss of cell viability (increase in neuronal survival): failed to protect
[2]
  reduction in OGD-induced neuronal cell death / loss of cell viability (increase in neuronal survival): modestly reduced the loss in cell viability
3 μg/ml total flavonoid (~10 μM; E+Q 1.5 μg/ml each), listed as quercetin
  reduction in OGD-induced neuronal cell death / loss of cell viability (increase in neuronal survival): 30%
  reduction of loss in cell viability after OGD: did not reduce the loss in cell viability

## Oc1cc(O)c2c(c1)O[C@H](c1ccc(O)c(O)c1)[C@H](O)C2 [E, (2R,3R)-2-(3,4-dihydroxyphenyl)-3,4-dihydro-2H-chromene-3,5,7-triol]
[1]
  reduction in OGD-induced neuronal cell death / loss of cell viability (increase in neuronal survival): modestly reduced the loss in cell viability
1 μg/ml total flavonoid (~3 μM; E+Q 0.5 μg/ml each), listed as Epicatechin
  reduction in OGD-induced neuronal cell death / loss of cell viability (increase in neuronal survival): 30%
[2]
  reduction in OGD-induced neuronal cell death / loss of cell viability (increase in neuronal survival): protected
  reduction of loss in cell viability after OGD: did not reduce the loss in cell viability
